Test results as given in US8354512B2, “Ligand and metal complex” (National Chiao Tung University, priority 2009, dated 2013).
Read-outs that look alike come from different tables or passages of the source.

Experiments:
HSA = HSA (Homo sapiens, UniProt P02768); conditions: literature values; cited from earlier work
[1] = cited from earlier work
[2] = Water exchange rate and molecular rotational correlation time by 17O-NMR at 9.4 T; assay type: physicochemical; conditions: 298 K
Source text: According to the disclosure of Chem. Rev., 1999, 99, 2293-2352, the relaxivity of the metal complex is affected by the hydration number q and the correlation time τc. The correlation time τc depends on three parameters: (1) molecular rotational correlation time (τR); (2) Electron longitudinal and transverse spin relaxation time (T1e, T2e); and (3) Water residence lifetime (τm) or Water exchange rate (kex), τm^−1=kex. Since Bz-CB-TTDA and CB-TTDA have the same hydration number, comparison between Bz-CB-TTDA and CB-TTDA in relaxivity can be determined by the aforesaid parameters, i.e., the higher the parameters, the higher will be the relaxivity.
Electron longitudinal and transverse spin relaxation time (T1e, T2e) of each test sample of the metal complexes was measured by using ^17O-NMR in a magnetic field of 9.4 T. The water exchange rate at 298 K (Kex^298) and the molecular rotational correlation time at 298 K (τR^298) of each test sample were determined by using three plots of “T1 versus temperature”, “T2 versus temperature” and “chemical shift versus temperature”.

[3] = Kinetic stability in PBS containing Zn2+; assay type: physicochemical; parameters: unit not given here; conditions: 2.5 mM complex, 2.5 mM ZnCl2, PBS pH 7.4, 37±0.1° C., three days, NMR 20 MHz
Procedure: Kinetic stability is evaluated by testing the stability of the metal complex in an environment containing a poisonous metal ion Zn^2+. The stability is defined as R1^p (t)/R1p (0), in which R1^P (t)=1/T1 (t), T1 is the relaxivity. The higher the R1^P (t)/R1p (0), the higher will be the stability.
2.5 mM of each of [Gd(Bz-CB-TTDA)]^2−−, [Gd(CB-TTDA)]^2− and [Gd(DTPA)]^2− was placed in a phosphate buffer saline (PBS, pH=7.4), followed by adding 2.5 mM of ZnCl2 to obtain a sample. The sample was subjected to reaction at 37±0.1° C. for three days (t=3), after which the relaxivity T1(t) of the sample was determined by using NMR (20 MHz).

Chain of HSA (P02768 25-609): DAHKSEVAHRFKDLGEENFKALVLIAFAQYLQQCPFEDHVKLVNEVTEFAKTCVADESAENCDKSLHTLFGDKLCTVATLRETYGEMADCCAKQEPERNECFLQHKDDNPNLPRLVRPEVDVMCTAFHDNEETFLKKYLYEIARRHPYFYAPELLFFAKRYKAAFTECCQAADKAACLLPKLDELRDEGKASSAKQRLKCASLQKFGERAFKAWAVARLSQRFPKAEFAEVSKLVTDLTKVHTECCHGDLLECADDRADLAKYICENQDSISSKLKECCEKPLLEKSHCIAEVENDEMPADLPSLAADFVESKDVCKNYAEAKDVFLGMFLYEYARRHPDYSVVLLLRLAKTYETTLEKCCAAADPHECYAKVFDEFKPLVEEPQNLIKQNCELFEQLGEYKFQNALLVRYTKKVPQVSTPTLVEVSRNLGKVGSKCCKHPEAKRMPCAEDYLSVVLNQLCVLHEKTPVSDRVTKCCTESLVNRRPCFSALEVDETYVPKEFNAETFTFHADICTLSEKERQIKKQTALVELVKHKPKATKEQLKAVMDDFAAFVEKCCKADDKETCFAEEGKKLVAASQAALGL

| SMILES | γ1^b bound relaxivity (HSA) | γ1 relaxivity ([1]; pH 7.6 ± 0.1, Am. J. Roentgenol., 1984, 142, 619-624) | kex^298 water exchange rate [2] | τR^298 molecular rotational correlation time [2] [ps] | R1^p (t)/R1^p (0) [3] | γ1 relaxivity ([1]; pH 7.5 ± 0.1, Inorg. Chem., 2005, 44, 382) |
| --- | --- | --- | --- | --- | --- | --- |
| O=C(O)CN(CCN(CC(=O)O)CC(=O)O)CCN(CC(=O)O)C(COCc1ccccc1)C(=O)O (stereo not drawn) [[Gd(BOPTA)]^2−] | 33.0^a mM^−1s^−1 |  |  |  |  |  |
| O=C([O-])CN(CCN(CC(=O)[O-])CC(=O)[O-])CCN(CC(=O)[O-])CC(=O)[O-].[Gd+3] [[Gd(DTPA)]^2−] |  | 3.89 ± 0.03^a mM^−1s^−1 | 4.1 10^6 s^−1 | 103 | 49.79 |  |
| CCOc1ccc(C[C@@H](C(=O)O)N(CCN(CCN(CC(=O)O)CC(=O)O)CC(=O)O)CC(=O)O)cc1 [[Gd(S)-EOB-DTPA]^2−] | 44.1^a mM^−1s^−1 |  |  |  |  |  |
| O=C([O-])CN(CCCN(CC(=O)[O-])CC(=O)[O-])CCN(CC(=O)[O-])CC(=O)[O-].[Gd+3] [[Gd(TTDA)]^2−] |  |  | 146 ± 17.0 10^6 s^−1 | 104 ± 12.0 |  | 3.85 ± 0.03^a mM^−1s^−1 |
